Consider two compounds from patent US20250186379A1, “METHODS AND AGENTS FOR DECREASING INSULIN RESISTANCE” (Whitehead Institute for Biomedical Research, priority 2021, published 2025).

The experiment deals with phosphorylated IRS1 (pIRS1). The experiment in a line: Imaging of phosphorylated IRS1 in IR condensates in HepG2 cells. The format is cell-based, human. As for the experimental part:
HepG2 cells, human liver spheroids, human primary adipocytes and human tissue liver sections were fixed in 4% PFA (VWR, BT140770-10X10) in PBS (Life Technologies, AM9625) for 10 minutes at room temperature. Cells were washed three times for 5 minutes in PBS, permeabilized with 0.5% TritonX100 (Sigma Aldrich, X100) in PBS, washed three times for 5 minutes in PBS, and then blocked with 4% IgG-free BSA (VWR, 102643-516) for 15-60 minutes at room temperature. Afterwards, the cells were incubated with 1:500 or 1:1000 primary antibody (specific antibodies listed below) in 4% IgG-free BSA in PBS at 4° C. overnight. […]
To quantify pIRS1 fluorescent signal in IR puncta/condensates manually, Airyscan images were opened on Fiji as composite images. A circle or an oval was drawn around IR puncta using the oval selection tool and the average fluorescence intensity of pIRS1 in the circle or oval (=in the puncta/condensates) was determined using the measure tool on Fiji.
To quantify pIRS1 fluorescent signal in IR puncta/condensates computationally using Fiji, 3D object counter tool was used. […] 3D object counter tool then determined the intensity pIRS1 channel in the identified IR puncta. pIRS1 signal intensity was then background subtracted by a threshold determined by averaging the background intensity in a rectangular region outside of the cells.

In the case of “insulin: insulin (Sigma Aldrich, I9278-5ML) used for acute stimulation and chronic physiological or pathological exposure”, the “intensity of pIRS1 at IR condensates” value (insulin-sensitive HepG2 cells, 3 nM insulin 5 min (FIG. 17F)) is on record as “increased”.

In the case of `CN(C)C(=N)N=C(N)N` [metformin, reference compound], the “levels of phosphorylated IRS1 in IR-containing condensates” value (insulin-resistant cells + metformin, 3 nM insulin 5 min (FIG. 18C)) is “partially rescued”.
